Data set [1] deals with T1, GPR124 (Homo sapiens, UniProt Q96PE1).
T1 construct: endogenous in cells; host or cells: T98g human astrocytoma cells
T1 sequence (Q96PE1 34-1338): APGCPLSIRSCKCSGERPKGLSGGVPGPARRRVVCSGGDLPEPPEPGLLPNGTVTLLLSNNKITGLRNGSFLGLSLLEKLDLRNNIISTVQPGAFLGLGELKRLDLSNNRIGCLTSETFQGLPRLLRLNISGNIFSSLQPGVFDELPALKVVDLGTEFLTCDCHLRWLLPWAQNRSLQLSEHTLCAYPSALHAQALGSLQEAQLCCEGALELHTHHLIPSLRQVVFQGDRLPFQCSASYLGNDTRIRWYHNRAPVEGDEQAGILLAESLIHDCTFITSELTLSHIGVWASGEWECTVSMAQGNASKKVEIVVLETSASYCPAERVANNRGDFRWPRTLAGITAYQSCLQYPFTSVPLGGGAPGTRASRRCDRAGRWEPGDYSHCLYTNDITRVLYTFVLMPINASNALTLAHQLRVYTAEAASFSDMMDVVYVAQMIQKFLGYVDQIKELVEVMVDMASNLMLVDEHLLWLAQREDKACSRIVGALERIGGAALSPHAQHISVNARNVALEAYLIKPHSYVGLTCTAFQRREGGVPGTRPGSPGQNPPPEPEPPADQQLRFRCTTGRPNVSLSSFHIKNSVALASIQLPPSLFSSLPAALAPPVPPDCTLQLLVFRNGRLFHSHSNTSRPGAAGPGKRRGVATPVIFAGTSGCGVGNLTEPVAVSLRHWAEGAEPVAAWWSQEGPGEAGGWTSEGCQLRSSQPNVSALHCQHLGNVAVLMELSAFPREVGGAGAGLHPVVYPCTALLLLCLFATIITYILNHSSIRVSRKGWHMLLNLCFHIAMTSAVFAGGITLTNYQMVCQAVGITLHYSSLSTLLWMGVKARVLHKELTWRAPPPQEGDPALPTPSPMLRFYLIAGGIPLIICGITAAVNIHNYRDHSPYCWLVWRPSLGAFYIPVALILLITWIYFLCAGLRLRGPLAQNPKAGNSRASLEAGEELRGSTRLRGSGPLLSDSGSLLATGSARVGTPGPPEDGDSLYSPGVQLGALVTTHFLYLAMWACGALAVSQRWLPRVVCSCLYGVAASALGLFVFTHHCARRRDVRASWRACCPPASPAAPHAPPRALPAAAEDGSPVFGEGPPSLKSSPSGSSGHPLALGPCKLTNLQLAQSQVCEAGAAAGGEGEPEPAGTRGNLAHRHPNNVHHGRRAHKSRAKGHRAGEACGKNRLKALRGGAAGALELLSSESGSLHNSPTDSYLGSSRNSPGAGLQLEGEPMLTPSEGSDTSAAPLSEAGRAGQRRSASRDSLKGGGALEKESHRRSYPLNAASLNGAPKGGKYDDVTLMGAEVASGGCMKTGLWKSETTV
In words: siRNA knock-down of GPCR candidates, JWH-451 toxicity in T98g cells. To be noted: JWH-451 1 μM, siRNA targeting GPR124, viability after three days. Type of data set: cell-based. The protocol:
To determine which of the gene candidate encodes for AAI receptors, an siRNA approach is used to knock down each candidate individually to determine which one prevents the toxic effect of JWH-451 and thus encodes for AAI receptors. The prediction is that knocking down AAI receptors prevents the cell death induced by JWH-451. T98g cells were treated with siRNA targeting each of the 39 GPCR gene candidates individually. The first experiment was designed to knock down each GPCR candidate using a mixture of 3 siRNAs thus maximize genetic targeting efficacy. Thus, cells were incubated with siRNA mixtures and then treated with JWH-451 (1 μM) and cell viability measured after three days. Only one mixture of siRNAs (that targeting GPR124) decreased the toxicity of JWH-451. […] Two of the three siRNAs knocked-down GPR124 expression by more than 80% over 4 days (FIG. 3b). […] The killing effect induced by JWH-451 is mediated by GPR124, a AAI receptor.

In data set [2] the test system is endothelial cell line bEnd.3. In words: Toxic profile in endothelial cell line. Type of data set: cell-based. The protocol: JWH-451 was tested for toxicity in cells expressing GPR124.
Data set [3] deals with U251 flank tumors. The data set can be described thus: U251 flank tumors in nude mice, tumor growth. Format: in vivo. The protocol: Nude mice that had been implanted with U251 flank tumors were treated with a daily regimen of JWH-451. This experiment was performed as follow: 10^6 U251 cells were implanted in the flanks of nude mice and the tumor was allowed to grow until it reached a size of 250 mm^3, at which point the mice were enrolled in daily treatment. Tumor growth was then measured and expressed as a function of initial tumor size.

Molecules are shown by their SMILES.

As to `CCn1c(C)c(C(=O)c2ccc(C)c3ccccc23)c2ccccc21` [JWH-451, 1-Ethyl-2-methyl-3-(4-methyl-1-napthoyl)indole], the “JWH-451-induced killing of T98g cells when GPR124 mRNA expression is reduced” value in data set [1] is “reduced”. The “viability of endothelial cell line bEnd.3” value in data set [2] is “did not affect the viability”. Also, the “tumor growth in vivo” value in data set [3] (daily i.p. injection 15 mg/Kg, U251 flank tumors, nude mice) was “significantly reduced tumor growth”. In addition, in data set [3] (daily i.p. injections 5 mg/Kg (FIG. 5 legend), compared to controls), the “growth of U251 gliomas implanted in the flanks of nude mice” value is “inhibits the growth”.

Source of the values: patent publication US9034895B2, “Composition and methods for treating glioblastoma” (University of Washington Through its Center for …, priority 2010, dated 2015).
